Among the test systems are PC-3 prostate; HOP-92 NSCLC; SF-539 CNS; HS 578T breast.
Test in all cases: NCI tumour cell line growth inhibition, 48 h

The structures appear in SMILES notation. Where “and” joins values, the source holds several entries; their conditions need not be identical. Equal values may be shown once.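 Cultured in 96-well plates, cells were exposed to test compound for 48 hours across five concentrations. Abbreviation: GI50, concentration required for 50% inhibition of growth. TGI: total growth inhibition.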

Consider `c1ccc(-c2nnc(Nc3ccc4c(c3)OCCO4)o2)c(NCc2ccncc2)c1`, for which the GI50 is 0.0301 µM in the assay on PC-3 prostate, 0.286 µM in the assay on HOP-92 NSCLC, 0.0283 µM in the assay on SF-539 CNS and 0.0281 µM in the assay with HS 578T breast. Moreover, the TGI in the assay on PC-3 prostate was over 52.7 µM; in the assay with HOP-92 NSCLC it was 6.87 µM; in the assay with SF-539 CNS, 6.01 µM; with HS 578T breast, over 69.4 µM.
Consider `CN(C)CCNC(=O)Cn1ccc(=O)c2ccc([N+](=O)[O-])cc21`, for which the TGI in the assay with PC-3 prostate, in the assay on HOP-92 NSCLC, with SF-539 CNS and in the assay on HS 578T breast was over 100 µM each time.
Consider `CC(=O)OC1CCC2(C)C(CCC3C4CC=C(C(C)=O)C4(C)OC(=O)CC32)C1` (centres undefined), for which the GI50 in the assay with PC-3 prostate is 4.56 µM; with HOP-92 NSCLC, 1.74 µM; in the assay on SF-539 CNS it was 1.8 µM; in the assay on HS 578T breast, 3.79 µM. Besides, the TGI in the assay with PC-3 prostate worked out at 16.7 µM; with HOP-92 NSCLC, 4.21 µM; with SF-539 CNS, 3.55 µM; with HS 578T breast, 29.8 µM.
Consider `COc1cc2ccnc3c2c(c1OC)-c1ccc(=O)ccc1-3`, for which the GI50 is 29.7 µM in the assay on PC-3 prostate, 14.4 µM in the assay with HOP-92 NSCLC, 15.9 µM in the assay on SF-539 CNS and 36.6 µM in the assay with HS 578T breast. Besides, the TGI with PC-3 prostate was over 100 µM; in the assay with HOP-92 NSCLC it was 80.4 µM; in the assay with SF-539 CNS, 77.3 µM; in the assay on HS 578T breast, over 100 µM.
In the case of `CCN(C(=O)CCl)C(C)(C)C(SSSC(c1ccc(Cl)cc1)C(C)(C)N(CC)C(=O)CCl)c1ccc(Cl)cc1` (centres undefined), the values for the GI50 with HOP-92 NSCLC, in the assay on SF-539 CNS and in the assay on HS 578T breast were 1.29 µM, 3.14 µM and 3.36 µM, respectively. The TGI in the assay with HOP-92 NSCLC worked out at 8.6 µM; with SF-539 CNS it was 10.9 µM; in the assay with HS 578T breast it was 18.8 µM.
Regarding `COc1ccc(/C=C/C(=O)c2ccc3cc(OC)c(OC)cc3c2)cc1OC`, the GI50 is 3.08 µM in the assay with PC-3 prostate, 1.65 µM in the assay with HOP-92 NSCLC, 2.94 µM with SF-539 CNS and 3.77 µM in the assay on HS 578T breast. For the same compound, the TGI with PC-3 prostate was determined as 13.3 µM; in the assay on HOP-92 NSCLC, 6.26 µM; in the assay with SF-539 CNS it was 10.4 µM; in the assay on HS 578T breast, 41.2 µM.
In the case of `COc1ccc2[nH]c(=O)c(/C=C/C(=O)/C=C/c3ccc(O)c(OC)c3)cc2c1`, the GI50 is 1.83 µM in the assay with PC-3 prostate, 1.84 µM in the assay with HOP-92 NSCLC, 1.58 µM in the assay on SF-539 CNS and 3.81 µM in the assay with HS 578T breast. Moreover, the TGI in the assay on PC-3 prostate was 4.94 µM; in the assay with HOP-92 NSCLC, 5.06 µM; in the assay with SF-539 CNS it was 3.21 µM; in the assay with HS 578T breast it was over 100 µM.
Take `O=C(O)C[O][Sb][O]CC(=O)O`: the GI50 in the assay with PC-3 prostate, in the assay on HOP-92 NSCLC and in the assay on HS 578T breast was over 100 µM in each case. For the same compound, the TGI in the assay with PC-3 prostate, with HOP-92 NSCLC and in the assay on HS 578T breast was over 100 µM each time.
In the case of `C/C1=C\C/C=C(\C)[C@H]2CC(CC/C(C)=C/CC1)[C@@](C)(CO)O2`, the GI50 was 68.5 µM with PC-3 prostate, 36.3 µM in the assay on HOP-92 NSCLC, over 100 µM in the assay on SF-539 CNS and over 100 µM in the assay on HS 578T breast. The TGI in the assay with PC-3 prostate, with HOP-92 NSCLC, in the assay on SF-539 CNS and with HS 578T breast was over 100 µM in each case.
In the case of `CN(C)CCCNc1ccnc2cc([N+](=O)[O-])ccc12`, the TGI with PC-3 prostate was determined as 42.4 µM; in the assay on HOP-92 NSCLC, 8.13 µM; with SF-539 CNS it was 31.9 µM; with HS 578T breast, 40.4 µM.
For the compound `S=C=NCc1ccccc1`, the TGI in the assay with PC-3 prostate was 19.8 µM; in the assay with HOP-92 NSCLC, 17 µM; in the assay with SF-539 CNS, 3.79 µM; in the assay on HS 578T breast it was 53.6 µM.
In the case of `CCN(CC)CCCOc1cc(O)c2c(=O)cc(-c3ccccc3)oc2c1`, the GI50 was 10.8 µM with PC-3 prostate, 3.08 µM in the assay with HOP-92 NSCLC, 6.65 µM in the assay with SF-539 CNS and 10.2 µM in the assay on HS 578T breast. Further, the TGI in the assay with PC-3 prostate was 25.3 µM; in the assay with HOP-92 NSCLC, 16.7 µM; in the assay on SF-539 CNS it was 19.5 µM; in the assay with HS 578T breast, 26 µM.
Turning to `Cc1cc2c3ccccc3ccc2[n+]2ccccc12`, the GI50 in the assay with PC-3 prostate was 3.38 µM; with HOP-92 NSCLC, 2.69 µM; in the assay with SF-539 CNS it was 3.47 µM; with HS 578T breast it was 2.6 µM. Also, the TGI with PC-3 prostate came out at 32.1 µM; with HOP-92 NSCLC it was 27.4 µM; with SF-539 CNS, 17 µM; in the assay on HS 578T breast it was 17.2 µM.
Turning to `ClC1=NC(Cl)C(Cl)=N/C1=N\c1ncn[nH]1` (centres undefined), the GI50 in the assay with HOP-92 NSCLC is 1.59 µM; in the assay on SF-539 CNS, 2.22 µM; in the assay on HS 578T breast, 14.3 µM. Further, the values for the TGI in the assay with HOP-92 NSCLC, in the assay on SF-539 CNS and in the assay with HS 578T breast were 3.1 µM, 5.6 µM and 61 µM, respectively.
For the compound `CC1(C)CC(=O)c2c(ccc(C(=O)C[C@H](N)CO)c2N)O1`, the GI50 is 10.6 µM and 5.7 µM in the assay on PC-3 prostate; 7.04 µM in the assay with HOP-92 NSCLC; over 33.3 µM in the assay on HS 578T breast. The TGI in the assay with PC-3 prostate was 17.5 µM and > 33.3 µM; in the assay on HOP-92 NSCLC it was 17.5 µM; in the assay with SF-539 CNS it was 17.5 µM and 7.43 µM; with HS 578T breast it was over 33.3 µM.
Regarding `N#Cc1cccc(/C=C(/C(=O)c2ccccc2)c2ccccc2)c1`, the GI50 in the assay with PC-3 prostate is 6.27 µM; in the assay with HOP-92 NSCLC, 2.6 µM; in the assay with SF-539 CNS, 5.55 µM; with HS 578T breast it was 2.9 µM. Further, the results for the TGI in the assay with PC-3 prostate, in the assay with SF-539 CNS and in the assay on HS 578T breast were 36.6 µM, 18.4 µM and 33.6 µM, respectively.
Consider `Nc1c(C(=O)c2cccc(CCC3(O)CCCC3)c2)cnn1-c1ccc(F)cc1`, for which the GI50 in the assay with PC-3 prostate is 8.98 µM; with HOP-92 NSCLC, 2.73 µM; with SF-539 CNS, 18.2 µM; in the assay with HS 578T breast, 12.7 µM. The TGI with PC-3 prostate was over 25 µM; in the assay on HOP-92 NSCLC it was 20.2 µM; in the assay with SF-539 CNS, over 25 µM; in the assay with HS 578T breast, over 25 µM.
As to `CN(C)C(=O)c1cc2cnc(Nc3ccc(-c4csc5c(=O)cc(N6CCNCC6)oc45)cc3)nc2n1C1CCCC1`, the GI50 is 0.677 µM with PC-3 prostate, 0.517 µM in the assay with HOP-92 NSCLC, 1.15 µM in the assay on SF-539 CNS and 0.943 µM in the assay on HS 578T breast. Further, the TGI in the assay with PC-3 prostate is 4.93 µM; with HOP-92 NSCLC, 16.5 µM; with SF-539 CNS, 2.43 µM; in the assay with HS 578T breast it was 4.39 µM.

Values taken from PubChem BioAssay (NCI).
